Assay results reported in the NIST ThermoML archive (doi:10.1021/je100707s).
Values joined by “and” are separate entries in the source; they are usually repeats but may differ in a detail not shown here. Equal entries are not always repeated.

Settings: Gas, Bellows volumetry

F/C=C/C(F)(F)F [trans-1,3,3,3-tetrafluoropropene]
Settings | mass density
310 K, 657 kPa | 34.36 kg/m3
310 K, 669 kPa | 35.06 kg/m3
310 K, 681 kPa | 35.86 kg/m3
310 K, 695 kPa | 36.78 kg/m3
320 K, 691 kPa | 34.42 kg/m3
320 K, 701 kPa | 35.05 kg/m3
320 K, 716 kPa | 35.92 kg/m3
320 K, 730 kPa | 36.8 kg/m3
320 K, 743 kPa | 37.6 kg/m3
320 K, 759 kPa | 38.61 kg/m3
320 K, 775 kPa | 39.62 kg/m3
320 K, 791 kPa | 40.64 kg/m3
320 K, 808 kPa | 41.76 kg/m3
320 K, 823 kPa | 42.77 kg/m3
320 K, 837 kPa | 43.67 kg/m3
320 K, 851 kPa | 44.36 kg/m3
320 K, 866 kPa | 45.45 kg/m3
320 K, 881 kPa | 46.49 kg/m3
320 K, 899 kPa | 47.75 kg/m3
320 K, 910 kPa | 48.63 kg/m3
330 K, 718 kPa | 34.26 kg/m3
330 K, 731 kPa | 34.99 kg/m3
330 K, 746 kPa | 35.85 kg/m3
330 K, 762 kPa | 36.76 kg/m3
330 K, 778 kPa | 37.66 kg/m3
330 K, 792 kPa | 38.48 kg/m3
330 K, 810 kPa | 39.52 kg/m3
330 K, 828 kPa | 40.65 kg/m3
330 K, 844 kPa | 41.61 kg/m3
330 K, 866 kPa | 42.95 kg/m3
330 K, 893 kPa | 44.43 kg/m3
330 K, 908 kPa | 45.39 kg/m3
330 K, 927 kPa | 46.54 kg/m3
330 K, 943 kPa | 47.55 kg/m3
330 K, 961 kPa | 48.73 kg/m3
330 K, 981 kPa | 50.03 kg/m3
330 K, 1001 kPa | 51.36 kg/m3
330 K, 1020 kPa | 52.67 kg/m3
330 K, 1041 kPa | 54.12 kg/m3
330 K, 1063 kPa | 55.64 kg/m3
330 K, 1075 kPa | 56.44 kg/m3
330 K, 1097 kPa | 57.98 kg/m3
330 K, 1113 kPa | 59.21 kg/m3
330 K, 1139 kPa | 61.03 kg/m3
330 K, 1165 kPa | 63.02 kg/m3
340 K, 747 kPa | 34.24 kg/m3
340 K, 762 kPa | 35.03 kg/m3
340 K, 778 kPa | 35.89 kg/m3
340 K, 794 kPa | 36.75 kg/m3
340 K, 810 kPa | 37.63 kg/m3
340 K, 827 kPa | 38.54 kg/m3
340 K, 845 kPa | 39.55 kg/m3
340 K, 864 kPa | 40.55 kg/m3
340 K, 882 kPa | 41.66 kg/m3
340 K, 903 kPa | 42.85 kg/m3
340 K, 921 kPa | 43.82 kg/m3
340 K, 933 kPa | 44.41 kg/m3
340 K, 953 kPa | 45.51 kg/m3
340 K, 971 kPa | 46.56 kg/m3
340 K, 989 kPa | 47.62 kg/m3
340 K, 1008 kPa | 48.82 kg/m3
340 K, 1030 kPa | 50.12 kg/m3
340 K, 1049 kPa | 51.33 kg/m3
340 K, 1069 kPa | 52.63 kg/m3
340 K, 1090 kPa | 53.99 kg/m3
340 K, 1117 kPa | 55.66 kg/m3
340 K, 1134 kPa | 56.71 kg/m3
340 K, 1154 kPa | 58.04 kg/m3
340 K, 1175 kPa | 59.4 kg/m3
340 K, 1196 kPa | 60.76 kg/m3
340 K, 1218 kPa | 62.25 kg/m3
340 K, 1238 kPa | 63.68 kg/m3
340 K, 1262 kPa | 65.39 kg/m3
340 K, 1284 kPa | 67.01 kg/m3
340 K, 1305 kPa | 68.59 kg/m3
340 K, 1308 kPa | 68.83 kg/m3
340 K, 1331 kPa | 70.6 kg/m3 and 70.59 kg/m3
340 K, 1354 kPa | 72.27 kg/m3
340 K, 1356 kPa | 72.51 kg/m3
340 K, 1378 kPa | 74.19 kg/m3
340 K, 1384 kPa | 74.55 kg/m3
340 K, 1398 kPa | 75.77 kg/m3
340 K, 1420 kPa | 77.51 kg/m3
340 K, 1441 kPa | 79.28 kg/m3
340 K, 1465 kPa | 81.46 kg/m3
340 K, 1482 kPa | 83.02 kg/m3
340 K, 1490 kPa | 83.71 kg/m3
350 K, 777 kPa | 34.25 kg/m3
350 K, 794 kPa | 35.1 kg/m3
350 K, 809 kPa | 35.85 kg/m3
350 K, 824 kPa | 36.66 kg/m3
350 K, 841 kPa | 37.55 kg/m3
350 K, 861 kPa | 38.6 kg/m3
350 K, 880 kPa | 39.57 kg/m3
350 K, 899 kPa | 40.59 kg/m3
350 K, 921 kPa | 41.8 kg/m3
350 K, 943 kPa | 42.97 kg/m3
350 K, 974 kPa | 44.44 kg/m3
350 K, 992 kPa | 45.42 kg/m3
350 K, 1009 kPa | 46.4 kg/m3
350 K, 1033 kPa | 47.69 kg/m3
350 K, 1050 kPa | 48.68 kg/m3
350 K, 1073 kPa | 49.96 kg/m3
350 K, 1081 kPa | 50.42 kg/m3
350 K, 1097 kPa | 51.34 kg/m3
350 K, 1118 kPa | 52.57 kg/m3
350 K, 1146 kPa | 54.28 kg/m3
350 K, 1166 kPa | 55.47 kg/m3
350 K, 1184 kPa | 56.54 kg/m3
350 K, 1212 kPa | 58.14 kg/m3
350 K, 1228 kPa | 59.18 kg/m3
350 K, 1253 kPa | 60.74 kg/m3
350 K, 1281 kPa | 62.46 kg/m3
350 K, 1299 kPa | 63.7 kg/m3
350 K, 1325 kPa | 65.31 kg/m3
350 K, 1352 kPa | 67.13 kg/m3
350 K, 1374 kPa | 68.68 kg/m3
350 K, 1376 kPa | 68.87 kg/m3
350 K, 1400 kPa | 70.45 kg/m3
350 K, 1403 kPa | 70.69 kg/m3
350 K, 1422 kPa | 72.01 kg/m3
350 K, 1434 kPa | 72.82 kg/m3
350 K, 1451 kPa | 74.02 kg/m3
350 K, 1460 kPa | 74.47 kg/m3
350 K, 1474 kPa | 75.65 kg/m3
350 K, 1499 kPa | 77.45 kg/m3
350 K, 1526 kPa | 79.54 kg/m3
350 K, 1552 kPa | 81.57 kg/m3
350 K, 1580 kPa | 83.73 kg/m3
350 K, 1611 kPa | 86.28 kg/m3
350 K, 1645 kPa | 88.62 kg/m3
350 K, 1667 kPa | 90.44 kg/m3
350 K, 1692 kPa | 92.58 kg/m3
350 K, 1722 kPa | 95.16 kg/m3
350 K, 1748 kPa | 97.5 kg/m3
350 K, 1773 kPa | 99.83 kg/m3
350 K, 1798 kPa | 102.24 kg/m3
350 K, 1822 kPa | 104.65 kg/m3
350 K, 1850 kPa | 107.61 kg/m3
350 K, 1869 kPa | 109.92 kg/m3
360 K, 806 kPa | 34.26 kg/m3
360 K, 822 kPa | 35.02 kg/m3
360 K, 838 kPa | 35.83 kg/m3
360 K, 858 kPa | 36.81 kg/m3
360 K, 872 kPa | 37.5 kg/m3
360 K, 893 kPa | 38.54 kg/m3
360 K, 914 kPa | 39.59 kg/m3
360 K, 934 kPa | 40.62 kg/m3
360 K, 957 kPa | 41.79 kg/m3
360 K, 980 kPa | 42.97 kg/m3
360 K, 996 kPa | 43.76 kg/m3
360 K, 1013 kPa | 44.41 kg/m3
360 K, 1032 kPa | 45.38 kg/m3
360 K, 1053 kPa | 46.47 kg/m3
360 K, 1076 kPa | 47.64 kg/m3
360 K, 1093 kPa | 48.62 kg/m3
360 K, 1123 kPa | 50.21 kg/m3
360 K, 1142 kPa | 51.25 kg/m3
360 K, 1164 kPa | 52.52 kg/m3
360 K, 1190 kPa | 53.97 kg/m3
360 K, 1217 kPa | 55.45 kg/m3
360 K, 1246 kPa | 56.97 kg/m3
360 K, 1249 kPa | 57.15 kg/m3
360 K, 1263 kPa | 57.94 kg/m3
360 K, 1285 kPa | 59.28 kg/m3
360 K, 1310 kPa | 60.71 kg/m3
360 K, 1335 kPa | 62.17 kg/m3
360 K, 1359 kPa | 63.66 kg/m3
360 K, 1386 kPa | 65.23 kg/m3
360 K, 1414 kPa | 66.98 kg/m3
360 K, 1438 kPa | 68.45 kg/m3
360 K, 1441 kPa | 68.77 kg/m3
360 K, 1466 kPa | 70.29 kg/m3 and 70.3 kg/m3
360 K, 1493 kPa | 72.04 kg/m3
360 K, 1502 kPa | 72.6 kg/m3
360 K, 1523 kPa | 73.94 kg/m3
360 K, 1535 kPa | 74.54 kg/m3
360 K, 1545 kPa | 75.43 kg/m3
360 K, 1580 kPa | 77.76 kg/m3
360 K, 1607 kPa | 79.57 kg/m3
360 K, 1634 kPa | 81.53 kg/m3
360 K, 1665 kPa | 83.71 kg/m3
360 K, 1695 kPa | 85.89 kg/m3
360 K, 1725 kPa | 87.95 kg/m3
360 K, 1737 kPa | 88.54 kg/m3
360 K, 1760 kPa | 90.28 kg/m3
360 K, 1787 kPa | 92.36 kg/m3
360 K, 1815 kPa | 94.55 kg/m3
360 K, 1850 kPa | 97.28 kg/m3
360 K, 1886 kPa | 100.24 kg/m3
360 K, 1926 kPa | 103.58 kg/m3
360 K, 1936 kPa | 104.54 kg/m3
360 K, 1964 kPa | 107.1 kg/m3
360 K, 1999 kPa | 110.25 kg/m3
360 K, 2157 kPa | 125.99 kg/m3
360 K, 2180 kPa | 128.5 kg/m3
360 K, 2212 kPa | 132.17 kg/m3
360 K, 2224 kPa | 133.7 kg/m3
360 K, 2247 kPa | 136.47 kg/m3
360 K, 2279 kPa | 140.52 kg/m3
360 K, 2287 kPa | 141.76 kg/m3
360 K, 2300 kPa | 143.52 kg/m3
